Our source for the IC50 values is ChEMBL document CHEMBL5726780, “Fused tricyclic compounds as Raf kinase inhibitors” (2018).

Each structure is given as a SMILES string. pIC50: −log10 of the molar value.

This assay can be described thus: Time-Resolved Fluorescence Energy Transfer Assay: Compounds disclosed herein were tested against B-Raf (V600E) (PV3849, from Invitrogen) or C-Raf (Y340D/Y341D) (PV3805, from Invitrogen) in a time-resolved fluorescence energy transfer assay. The assay was carried out in reactions (10 μL) containing 0.0625 nM B-Raf or 0.5 nM C-Raf, 25 mM Tris pH7.4, 10 mM MgCl2, 0.5 mM EGTA, 0.5 mM […], 5 mM beta-glycerophosphate, 0.01% Triton X-100, 2.5 mM DTT, 0.1% BSA, 0.1 mM ATP, 13.7 nM GST-tagged MEK1 (Full-length protein with K97R mutation, recombinant protein purified from bacterial expression system) and 0-5 μM compounds disclosed herein (final concentration of 1% DMSO). The enzyme was incubated with the compounds at room temperature for 60 minutes and the reactions were initiated by the addition of ATP and GST-MEK1. After incubating at room temperature for 60 minutes, an equal volume of stop buffer containing 25 mM Tris pH7.4, 400 mM KF, 50 mM EDTA, 0.01% BSA, 0.01% Triton X-100, 1 test of Eu3+ Cryptate-conjugated rabbit polyclonal antibody anti-Phospho MEK1/2 (Ser217/221) and 1 test of d2-conjugated mouse monoclonal antibody anti-glutathione S-transferase was added to stop the reactions. Plates were sealed and incubated at room temperature for 2 hours, and then the TR-FRET signals were read on BMG PHERAstar FS instrument.
With `O=C1CCc2c(Oc3ccc4c(c3)C3C(O4)C3c3nc4ccc(Br)cc4[nH]3)ccnc2N1` (centres undefined), the pIC50 was 7.09.
As for `O=C1CCc2c(Oc3ccc4c(c3)C3C(C4)C3C(=O)Nc3ccccc3S)ccnc2N1` (centres undefined), the figure is 8.26.
Then `CNC(=O)Nc1cc(Oc2ccc3c(c2)C2C(O3)C2c2nc3ccc(C(F)(F)F)cc3[nH]2)ccn1` (centres undefined), with 8.19; and `O=C1CCc2c(Oc3ccc4c(c3)C3C(O4)C3C(=O)OCC(=O)c3ccccc3)ccnc2N1` (centres undefined), with > 9.60.
